Measured values reported in article PMC6256987, “Investigating the Activity Spectrum for Ring-Substituted 8-Hydroxyquinolines” (Molecules, 2010).
≈ marks a conversion by molar mass, not a printed value. Where “and” joins values, the source holds several entries; their conditions need not be identical. Equal entries are not always repeated. Where two headings read alike, the source gives them in different places.

Columns and labels:
[1] = test system: Candida krusei ATCC 6258; assay: In vitro antifungal broth microdilution test; format: cell-based; conditions: Pichia kudriavzevii, ATCC6258, 35 °C, RPMI 1640 pH 7.0, CLSI M27-A2 (IC80 value)
[2] = test system: M. kansasii CIT11/06; assay: In vitro antimycobacterial evaluation (alamarBlue, 96 well plate); format: cell-based; conditions: Mycobacterium kansasii, CIT11/06, 120 h, Middlebrook broth, 37 °C 5 days, read-out: MIC/IC90 M. kansasii
[3] = test system: M. absessus CIT21/06; assay: as above; format: cell-based; conditions: Middlebrook broth, 37 °C overnight, read-out: MIC/IC90 M. absessus
[4] = test system: Candida albicans ATCC 44859; assay: In vitro antifungal broth microdilution test; format: cell-based; conditions: Candida albicans, ATCC44859, 35 °C, RPMI 1640 pH 7.0, CLSI M27-A2 (IC80 value)
[5] = test system: Trichosporon beigelii 1188; assay: In vitro antifungal broth microdilution test; format: cell-based; conditions: Trichosporon beigelii, 1188, 35 °C, RPMI 1640 pH 7.0, CLSI M27-A2 (IC80 value), read-out: MIC TB
Description: Fluconazole (FLU) was used as the standard of a clinically used antimycotic drug. The procedure was performed with twofold dilution of the compounds in RPMI 1640 (Sevapharma a.s., Prague, Czech Republic) buffered to pH 7.0 with 0.165 mol of 3-morpholino-propane-1-sulfonic acid (MOPS, Sigma, Germany). The final concentrations of the compounds ranged from 500 to 0.975 μmol/L. Drug–free controls were included. The MIC determination was performed according to the CLSI (formerly NCCLS) reference protocol M27-A2 for yeasts (IC80 value) and M38-A for moulds (IC50 value). […] The values of MICs were determined after 24 and 48 h of static incubation at 35 °C. For T. mentagrophytes, the final MICs were determined after 72 and 120 h of incubation.

[6] = Lipophilicity determination by RP-HPLC (capacity factor k / log k); format: physicochemical; conditions: C18 column, isocratic MeOH 55.0% / H2O 45.0%
Text: A Waters Alliance 2695 XE HPLC separation module and Waters Photodiode Array Detector 2996 (Waters Corp., Milford, MA, USA) were used. A Symmetry® C18 5 μm, 4.6 × 250 mm, Part No. WAT054275, (Waters Corp., Milford, MA, USA) chromatographic column was used. The HPLC separation process was monitored by Millennium32® Chromatography Manager Software, Waters 2004 (Waters Corp., Milford, MA, USA). A mixture of MeOH p.a. (55.0%) and H2O-HPLC– Mili-Q Grade (45.0%) was used as a mobile phase. The total flow of the column was 0.9 mL/min, injection 30 μL, column temperature 30 °C and sample temperature 10 °C. The detection wavelength 210 nm was chosen. The KI methanolic solution was used for the dead time (tD) determination. Retention times (tR) were measured in minutes.
The capacity factors k were calculated using the Millennium32® Chromatography Manager Software according to formula k = (tR - tD)/tD, where tR is the retention time of the solute, whereas tD denotes the dead time obtained via an unretained analyte. Log k, calculated from the capacity factor k, is used as the lipophilicity index converted to log P scale.

[7] = test system: M. smegmatis MC2155; assay: In vitro antimycobacterial evaluation (alamarBlue, 96 well plate); format: cell-based; conditions: Mycolicibacterium smegmatis, Middlebrook broth, 37 °C overnight, read-out: MIC/IC90 M. smegmatis
[8] = test system: Absidia corymbifera 272; assay: In vitro antifungal broth microdilution test; format: cell-based; conditions: Lichtheimia corymbifera, 272, 35 °C, RPMI 1640 pH 7.0, CLSI M38-A (IC50 value)
[9] = test system: Candida tropicalis 156; assay: In vitro antifungal broth microdilution test; format: cell-based; conditions: Candida tropicalis, 156, 35 °C, RPMI 1640 pH 7.0, CLSI M27-A2 (IC80 value)
[10] = test system: photosynthetic electron transport (PET) in spinach chloroplasts; assay: Inhibition of photosynthetic electron transport (PET) in spinach chloroplasts, DCPIP photoreduction; format: biochemical, Spinacia oleracea L.; conditions: DCPIP as electron acceptor, phosphate buffer pH 7.2, read-out: PET reduction IC50
Description: Chloroplasts were prepared from spinach (Spinacia oleracea L.) according to Masarovicova and Kralova. The inhibition of photosynthetic electron transport (PET) in spinach chloroplasts was determined spectrophotometrically (Genesys 6, Thermo Scientific, USA) using an artificial electron acceptor 2,6-dichlorophenol-indophenol (DCIPP) according to Kralova et al. and the rate of photosynthetic electron transport was monitored as a photoreduction of DCPIP. The measurements were carried out in phosphate buffer (0.02 mol/L, pH 7.2) containing sucrose (0.4 mol/L), MgCl2 (0.005 mol/L) and NaCl (0.015 mol/L). The chlorophyll content was 30 mg/L in these experiments and the samples were irradiated (~100 W/m^2) from 10 cm distance with a halogen lamp (250 W) using a 4 cm water filter to prevent warming of the samples (suspension temperature 22 °C). The studied compounds were dissolved in DMSO due to their limited water solubility. […] The inhibitory efficiency of the studied compounds was expressed by IC50 values, i.e., by molar concentration of the compounds causing 50% decrease in the oxygen evolution rate relative to the untreated control.

[11] = test system: Candida glabrata 20/I; assay: In vitro antifungal broth microdilution test; format: cell-based; conditions: Nakaseomyces glabratus, 20/I, 35 °C, RPMI 1640 pH 7.0, CLSI M27-A2 (IC80 value)
[12] = test system: Aspergillus fumigatus 231; assay: In vitro antifungal broth microdilution test; format: cell-based; conditions: Aspergillus fumigatus, 231, 35 °C, RPMI 1640 pH 7.0, CLSI M38-A (IC50 value)
[13] = test system: Trichophyton mentagrophytes 445; assay: In vitro antifungal broth microdilution test; format: cell-based
[14] = test system: Mycobacterium avium complex CIT19/06; assay: In vitro antimycobacterial evaluation (alamarBlue, 96 well plate); format: cell-based; conditions: 120 h, Middlebrook broth, 37 °C 5 days, read-out: MIC/IC90 M. avium complex
[15] = test system: photosynthetic electron transport (PET) in spinach chloroplasts; design: method as in earlier work; conditions: standard, read-out: PET reduction IC50; cited from earlier work
[16] = Trichophyton mentagrophytes, 445, 120 h, pH 7
[17] = Trichophyton mentagrophytes, 445, 72h, RPMI 1640 pH 7.0, CLSI M38-A (IC50 value)

## Oc1ccc(C=Cc2ccc3c(Cl)cc(Cl)c(O)c3n2)cc1 [Compound 10, 5,7-Dichloro-2-[2-(4-hydroxyphenyl)vinyl]quinolin-8-ol]
[1]; 24h
  MIC: 125 µM (≈ 41.5 µg/mL)
[1]; 48h
  MIC: > 125 µM
[2]
  MIC: > 300 µg/mL
[3]
  MIC: > 300 µg/mL
[4]; 24h
  MIC: 125 µM (≈ 41.5 µg/mL)
[4]; 48h
  MIC: > 125 µM
[5]; 24h
  MIC: 125 µM (≈ 41.5 µg/mL)
[5]; 48h
  MIC: > 125 µM
[6]
  log k: 1.5866
[7]
  MIC: 150 µg/mL (≈ 452 µM)
[8]; 24h
  MIC: 31.2 µM (≈ 10.4 µg/mL)
[8]; 48h
  MIC: 62.5 µM (≈ 20.8 µg/mL)
[9]; 24h
  MIC: 125 µM (≈ 41.5 µg/mL)
[9]; 48h
  MIC: > 125 µM
[10]
  IC50: 660 µM
[11]; 24h
  MIC: 125 µM (≈ 41.5 µg/mL)
[11]; 48h
  MIC: > 125 µM
[12]; 24h
  MIC: 125 µM (≈ 41.5 µg/mL)
[12]; 48h
  MIC: 125 µM (≈ 41.5 µg/mL)
[13]; [16]
  MIC: 62.5 µM (≈ 20.8 µg/mL)
[13]; [17]
  MIC: 15.6 µM (≈ 5.19 µg/mL)
[14]
  MIC: > 300 µg/mL

## Oc1ccc(C=Cc2ccc3c(Cl)cc(Cl)c(O)c3n2)c(O)c1 [Compound 11, 5,7-Dichloro-2-[2-(2,4-dihydroxyphenyl)vinyl]quinolin-8-ol]
[2]
  MIC: > 100 µg/mL
[3]
  MIC: > 100 µg/mL
[6]
  log k: 1.5858
[7]
  MIC: 100 µg/mL (≈ 287 µM)
[14]
  MIC: > 100 µg/mL

## Oc1cc(O)cc(C=Cc2ccc3c(Cl)cc(Cl)c(O)c3n2)c1 [Compound 12, 5,7-Dichloro-2-[2-(3,5-dihydroxyphenyl)vinyl]quinolin-8-ol]
[1]; 24h
  MIC: > 125 µM
[1]; 48h
  MIC: > 125 µM
[2]
  MIC: > 300 µg/mL
[3]
  MIC: > 300 µg/mL
[4]; 24h
  MIC: > 125 µM
[4]; 48h
  MIC: > 125 µM
[5]; 24h
  MIC: > 125 µM
[5]; 48h
  MIC: > 125 µM
[6]
  log k: 1.5867
[7]
  MIC: > 100 µg/mL
[8]; 24h
  MIC: 62.5 µM (≈ 21.8 µg/mL)
[8]; 48h
  MIC: 62.5 µM (≈ 21.8 µg/mL)
[9]; 24h
  MIC: > 125 µM
[9]; 48h
  MIC: > 125 µM
[10]
  IC50: 341 µM
[11]; 24h
  MIC: > 125 µM
[11]; 48h
  MIC: > 125 µM
[12]; 24h
  MIC: 125 µM (≈ 43.5 µg/mL)
[12]; 48h
  MIC: 125 µM (≈ 43.5 µg/mL)
[13]; [16]
  MIC: 15.6 µM (≈ 5.44 µg/mL)
[13]; [17]
  MIC: 15.6 µM (≈ 5.44 µg/mL)
[14]
  MIC: > 300 µg/mL

## CC(=O)Oc1ccc(O)c(C=Cc2ccc3c(Cl)cc(Cl)c(O)c3n2)c1 [Compound 13, 5,7-Dichloro-2-[2-(2-hydroxy-5-acetoxyphenyl)vinyl]quinolin-8-ol]
[2]
  MIC: > 300 µg/mL
[3]
  MIC: > 300 µg/mL
[6]
  log k: 1.5864
[7]
  MIC: 100 µg/mL (≈ 256 µM)
[14]
  MIC: > 300 µg/mL

## Oc1c(Cl)cc(Cl)c2ccc(C=Cc3ccc(C=Cc4ccc5c(Cl)cc(Cl)c(O)c5n4)cc3)nc12 [Compound 14, 5,7-Dichloro-2-(2-{4-[2-(5,7-dichloro-8-hydroxyquinolin-2-yl)vinyl]phenyl}vinyl)quinolin-8-ol]
[1]; 24h
  MIC: 0.98 µM (≈ 0.543 µg/mL)
[1]; 48h
  MIC: 1.95 µM (≈ 1.08 µg/mL)
[2]
  MIC: 40 µg/mL (≈ 72.2 µM)
[3]
  MIC: 130 µg/mL (≈ 235 µM)
[4]; 24h
  MIC: 0.98 µM (≈ 0.543 µg/mL)
[4]; 48h
  MIC: 3.9 µM (≈ 2.16 µg/mL)
[5]; 24h
  MIC: 3.9 µM (≈ 2.16 µg/mL)
[5]; 48h
  MIC: 15.6 µM (≈ 8.66 µg/mL)
[6]
  log k: 2.5760
[7]
  MIC: 40 µg/mL (≈ 72.2 µM)
[8]; 24h
  MIC: 15.6 µM (≈ 8.66 µg/mL)
[8]; 48h
  MIC: 31.2 µM (≈ 17.3 µg/mL)
[9]; 24h
  MIC: 1.95 µM (≈ 1.08 µg/mL)
[9]; 48h
  MIC: 7.81 µM (≈ 4.33 µg/mL)
[10]
  IC50: 334 µM
[11]; 24h
  MIC: 0.49 µM (≈ 0.272 µg/mL)
[11]; 48h
  MIC: 1.95 µM (≈ 1.08 µg/mL)
[12]; 24h
  MIC: 3.9 µM (≈ 2.16 µg/mL)
[12]; 48h
  MIC: 15.6 µM (≈ 8.66 µg/mL)
[13]; [16]
  MIC: 7.81 µM (≈ 4.33 µg/mL)
[13]; [17]
  MIC: 3.9 µM (≈ 2.16 µg/mL)
[14]
  MIC: > 300 µg/mL

## CN(C)C(=O)Nc1ccc(Cl)c(Cl)c1 [DCMU, 3-(3,4-dichlorophenyl)-1,1-dimethylurea]
[15]
  IC50: ~1.9 µM and 1.9 µM

## NNC(=O)c1ccncc1 [INH, isoniazid, reference compound]
[2]
  MIC: < 10 µg/mL
[3]
  MIC: > 100 µg/mL
[7]
  MIC: 39 µg/mL (≈ 284 µM)
[14]
  MIC: < 10 µg/mL

## NC(=O)c1cnccn1 [PZA, pyrazinamide, reference compound]
[2]
  MIC: > 100 µg/mL
[3]
  MIC: > 100 µg/mL
[7]
  MIC: > 100 µg/mL
[14]
  MIC: > 100 µg/mL
